Measurements published in paper PMC6572064, “Discovery of 2-(1-(3-(4-Chloroxyphenyl)-3-oxo- propyl)pyrrolidine-3-yl)-1H-benzo[d]imidazole-4-carboxamide: A Potent Poly(ADP-ribose) Polymerase (PARP) Inhibitor for Treatment of Cancer” (Molecules, 2019).
Values joined by “and” are separate entries in the source; they are usually repeats but may differ in a detail not shown here. Equal values may be shown once. Read-outs that look alike come from different tables or passages of the source. One block for each compound: values may come before it.

Key:
[1] = test system: CAPAN-1 (a BRCA-2-mutated pancreatic cancer cell line); assay: Cell proliferation assay, three-day, CellTiter-Glo, CAPAN-1; format: cell-based; settings: for inhibition at 0.00508 µM: CAPAN-1, Conc. 0.00508 uM; for inhibition at 0.0152 µM: CAPAN-1, Conc. 0.0152 uM; for inhibition at 0.0457 µM: CAPAN-1, Conc. 0.0457 uM; for inhibition at […]: CAPAN-1, Conc. 0.14 uM; for inhibition at 0.41 µM: CAPAN-1, Conc. 0.41 uM; for inhibition at 1.23 µM: CAPAN-1, Conc. 1.23 uM; for inhibition at 3.7 µM: CAPAN-1, Conc. 3.70 uM; for inhibition at 11.11 µM: CAPAN-1, Conc. 11.11 uM; for inhibition at 33.33 µM: CAPAN-1, Conc. 33.33 uM; for inhibition at 100 µM: CAPAN-1, Conc. 100.00 uM
Protocol: (§1) A three-day assay was conducted. A cell suspension was prepared. Cell density was counted by an automated cell counter and then diluted to the required density, according to seeding density. 50 μL cells were seeded into 384-well plate in growth medium according to the plate map. The cells were incubated at 37 °C, 5% CO2 overnight.
(§2) 200× compound solution in DMSO was prepared and diluted with growth medium to 26× final concentration by addition of 26 μL 200× compounds to 174 μL growth medium. Then 2 μL of diluted compound solution was added to cells and the cell was incubated at 37 °C, 5% CO2 for 72 h.
(§3) The assay plate was equilibrated to room temperature prior to measurement. 15 μL of CellTiter-Glo Reagent was added into each well and the contents were mixed for 2 min on an orbital shaker to induce cell lysis. The cells were incubated at room temperature for 60 min to stabilize luminescent signal. Luminescence was recorded on the Envision system.

[2] = test system: MDA-MB-436 (a BRCA-1-mutated breast cancer cell line); assay: Cell proliferation assay, three-day, CellTiter-Glo, MDA-MB-436; format: cell-based; settings: for inhibition at 0.00508 µM / inhibition at 0.0152 µM / inhibition at 0.0457 µM / inhibition at 0.41 µM / inhibition at 1.23 µM / inhibition at 3.7 µM / inhibition at 11.11 µM / inhibition at 33.33 µM / inhibition at 100 µM / IC50: Homo sapiens; for inhibition at 0.00508 µM: MDA-MB-436, MDA-MB-436, Conc. 0.00508 uM; for inhibition at 0.0152 µM: MDA-MB-436, MDA-MB-436, Conc. 0.0152 uM; for inhibition at 0.0457 µM: MDA-MB-436, MDA-MB-436, Conc. 0.0457 uM; for inhibition at 0.41 µM: MDA-MB-436, MDA-MB-436, Conc. 0.41 uM; for inhibition at 1.23 µM: MDA-MB-436, MDA-MB-436, Conc. 1.23 uM; for inhibition at 3.7 µM: MDA-MB-436, MDA-MB-436, Conc. 3.70 uM; for inhibition at 11.11 µM: MDA-MB-436, MDA-MB-436, Conc. 11.11 uM; for inhibition at 33.33 µM: MDA-MB-436, MDA-MB-436, Conc. 33.33 uM; for inhibition at 100 µM: MDA-MB-436, MDA-MB-436, Conc. 100.00 uM
Protocol: as §1, §2, §3

[3] = Homo sapiens, replicate 1, read-out: Inh % 1
[4] = Homo sapiens, replicate 2, read-out: Inh % 2
[5] = CAPAN-1, curve fit of Inh %, plate 1

- CAPAN-1 IC50 (μM) ([1]; 72 h, CellTiter-Glo): low potency
- IC50 ([1]; Homo sapiens, CAPAN-1, 72 h, CellTiter-Glo, read-out: CAPAN-1 IC50): > 100 µM
- IC50 ([2]; MDA-MB-436, 72 h, CellTiter-Glo, read-out: MDA-MB-436 IC50): 30.2 µM
- IC50 ([2]; MDA-MB-436, 72 h, supplement Summary sheet, read-out: IC50): 30.2 µM
- IC50 ([2]; MDA-MB-436, curve-fit parameter list, concentrations in uM, read-out: IC50): 30.2 µM
Compound: O=C(c1cc(Cc2n[nH]c(=O)c3ccccc23)ccc1F)N1CCN(C(=O)C2CC2)CC1 [pc2, Olaparib, reference compound]
- LogIC50 ([1]; CAPAN-1, curve-fit output, concentration axis Log (uM)): 2.033
- inhibition at 0.00508 µM [1, 3]: 1.8%
- inhibition at 0.00508 µM [1, 4]: -2%
- inhibition at 0.0152 µM [1, 3]: 5.2%
- inhibition at 0.0152 µM [1, 4]: -2.3%
- inhibition at 0.0457 µM [1, 3]: -6.9%
- inhibition at 0.0457 µM [1, 4]: 0.662%
- inhibition at […] [1, 3]: 0.107%
- inhibition at […] [1, 4]: 6.2%
- inhibition at 0.41 µM [1, 3]: 4.3%
- inhibition at 0.41 µM [1, 4]: 7.9%
- inhibition at 1.23 µM [1, 3]: 15.1%
- inhibition at 1.23 µM [1, 4]: 0.6%
- inhibition at 3.7 µM [1, 3]: 21.3%
- inhibition at 3.7 µM [1, 4]: 11.6%
- inhibition at 11.11 µM [1, 3]: 18.6%
- inhibition at 11.11 µM [1, 4]: 23.5%
- inhibition at 33.33 µM [1, 3]: 38.5%
- inhibition at 33.33 µM [1, 4]: 34.2%
- inhibition at 100 µM [1, 3]: 48.2%
- inhibition at 100 µM [1, 4]: 47.5%
- inhibition at 0.00508 µM ([2]; replicate 1, read-out: Inh % 1): 4.1%
- inhibition at 0.00508 µM ([2]; replicate 2, read-out: Inh % 2): -2.3%
- inhibition at 0.0152 µM ([2]; replicate 1, read-out: Inh % 1): 1.7%
- inhibition at 0.0152 µM ([2]; replicate 2, read-out: Inh % 2): -1.2%
- inhibition at 0.0457 µM ([2]; replicate 1, read-out: Inh % 1): -5.7%
- inhibition at 0.0457 µM ([2]; replicate 2, read-out: Inh % 2): -2.8%
- inhibition at 0.41 µM ([2]; replicate 1, read-out: Inh % 1): 0.181%
- inhibition at 0.41 µM ([2]; replicate 2, read-out: Inh % 2): 5.7%
- inhibition at 1.23 µM ([2]; replicate 1, read-out: Inh % 1): 4%
- inhibition at 1.23 µM ([2]; replicate 2, read-out: Inh % 2): 2%
- inhibition at 3.7 µM ([2]; replicate 1, read-out: Inh % 1): 12.4%
- inhibition at 3.7 µM ([2]; replicate 2, read-out: Inh % 2): 13.5%
- inhibition at 11.11 µM ([2]; replicate 1, read-out: Inh % 1): 23.3%
- inhibition at 11.11 µM ([2]; replicate 2, read-out: Inh % 2): 24.2%
- inhibition at 33.33 µM ([2]; replicate 1, read-out: Inh % 1): 50.1%
- inhibition at 33.33 µM ([2]; replicate 2, read-out: Inh % 2): 43.1%
- inhibition at 100 µM ([2]; replicate 1, read-out: Inh % 1): 92.4%
- inhibition at 100 µM ([2]; replicate 2, read-out: Inh % 2): 90.9%
- LogIC50 ([2]; MDA-MB-436, curve-fit parameter list, Log (uM)): 1.481

Compound: CN[C@@H]1C[C@H]2O[C@@](C)([C@@H]1OC)n1c3ccccc3c3c4c(c5c6ccccc6n2c5c31)C(=O)NC4 [STS, reference compound]
- IC50 ([1]; CAPAN-1, 72 h, supplement Summary sheet, read-out: IC50): 0.0647 µM
- Bottom [1, 5]: 8.442 and 8.44
- HillSlope [1, 5]: 0.6137 and 0.61
- Top [1, 5]: 105.1
- IC50 ([1]; CAPAN-1, curve fit, plate 1, read-out: IC50): 0.0647 µM
